Columns and labels:
[1] = tested on: endothelial cells of mouse aorta; assay: Growth of primary endothelial cells from mouse aorta segments on Matrigel; type: cell-based, Balb/c mice; details: 10, 25, 100 μg/ml PBS; 48 hours, 72 hours
Method: The Balb/c mice were sacrificed by dislocating the neck and aorta were detached and washed off the blood cells therein with PBS. The cleaned aorta was cut into aorta segments in length of 1 mm, which were planted vertically in 24-well cell culture plate coated with Matrigel gel (BD company); and 10% FCS/RPMI1640 was added, and the plates were placed and cultured in CO2 incubator (37° C., 5% CO2). The vehicle (PBS) and FpAT (10 μg/ml PBS, 25 μg/ml PBS, 100 μg/ml PBS) were added separately, with 3 parallel wells per group, and the cultivation was performed for 48 hours, 72 hours. Then the growth of mouse aorta endothelial cell was observed under microscope.

[2] = tested on: mice liver cancer H22 cells; assay: Tumor suppression by FpAT and derivative peptides in liver cancer H22 tumor-bearing mouse model (Example 14); type: in vivo, mice of Kunming strain; details: peptides 50 μg/100 μl PBS/injection, angulus oculi medialis vein daily, 7 times; CTX 80 mg/KG; tumors weighed
Method: Ninety 5-week old mice of Kunming strain purchased from Animal Center Of Chinese Academy Of Medical Sciences were inoculated subcutaneously in forelimb with mice liver cancer H22 cells (National Institute for the Control of Pharmaceutical and Biological Products) (5×10^6/100 μl/mouse). On the next day after inoculation, each kind of inoculated cells were divided randomly into […] with 10 mice per group. FpAT (50 μg/100 μl PBS/injection) and 7 kinds of derivative peptides thereof (see Table 5 below for detailed sequence):FpAT-N3d, FpAT-N6d, FpAT-N9d, FpAT-C3d, FpAT-C6d, FpAT-C9d, FpAT-N5d-C4d, and vehicle control (PBS:100 μl/injection) were injected in angulus oculi medialis vein, with CTX (cyclophosphamide) (80 mg/KG) as positive control daily, 7 times in total. The mice were sacrificed by dislocating the neck on the next day after administration was stopped, and the tumors were taken and weighed for a statistical analysis.

[3] = tested on: human colon cancer HT-29 cells; assay: Tumor suppression in human colon cancer HT-29 tumor-bearing nude mice model; type: in vivo, Balb/c nude mice; details: 50 μg/100 μl PBS/injection, angulus oculi medialis vein once every other day, 10 times; vs vehicle, P<0.05
Method: (§1) In order to confirm the biological effects of FpAT on the growth of human deriving tumors in nude mice in vivo, a tumor suppression experiment was carried out in this example using human gastric carcinoma BGC-823 cells tumor-bearing nude mice model, human lung cancer PG cells tumor-bearing nude mice model and human colon cancer HT-29 cells tumor-bearing nude mice model.
(§2) Twenty 5-week old Balb/c nude mice purchased from Animal Center Of Chinese Academy Of Medical Sciences were inoculated subcutaneously in forelimb with human gastric carcinoma BGC-823 cells (National Institute for the Control of Pharmaceutical and Biological Products) (5×10^6/100 μl/mouse), human lung cancer PG cells (National Institute for the Control of Pharmaceutical and Biological Products) (5×10^6/100 μl/mouse) or human colon cancer HT-29 cells (ATCC® Number: HTB-38™) (5×10^6/100 μl/mouse). On the next day after inoculation, each kind of inoculated cells were divided into 2 groups randomly with 5 mice per group. […] Observation was continued for another 20 days after administration was stopped, and during this period the long and short diameters of the tumors were measured with a vernier caliper once every three days, and the volumes of the tumor mass were calculated according to formula ½×long diameter×short diameter^2. […]

[4] = tested on: pig aorta endothelial cells (PAEC); assay: MTT proliferation of pig aorta endothelial cells; type: cell-based; details: similar experiment to HUVEC MTT
[5] = tested on: human umbilical vein endothelial cells (HUVECs); assay: Three-dimensional tubular structure formation of HUVECs; type: cell-based; details: 10, 25, 100 μg/ml PBS; 48, 72, 96 hours
Method: (§3) Human umbilical cord samples (obtained from Beijing Obstetrics & Gynecology Hospital) was digested with 0.1% collagenase I (available from GIBCO BRL company), followed by a centrifugation (1000 rpm, 10 minutes) to collect human umbilical vein endothelial cells (HUVECs). After suspended in 20% FCS/RPMI1640, the cells were transferred into plastic bottles for culture in CO2 incubator (37° C., 5% CO2). Twelve hours later, unattached cells were discarded by changing medium, and then the remaining cells were cultured conventionally with the medium changed every 3 days. The cultured HUVECs were digested with 0.04% trypsin-EDTA, and inoculated into 24-well plate at 2×10^4 cells/well; and the vehicle (PBS) and FpAT (10 μg/ml PBS, 25 μg/ml PBS, 100 μg/ml PBS) were added separately, with 3 parallel wells per group.

[6] = tested on: human umbilical vein endothelial cells (HUVECs); assay: MTT proliferation of HUVECs; type: cell-based; details: 25 μg/ml PBS, MTT at 24, 48, 72, 96 hours
Method: In order to further investigate the effects of FpAT on the proliferation of various vascular endothelial cells, a cell proliferation suppression experiment was carried out using MTT method in this example.
as §3, with “into 96-well” for “into 24-well”, “at 2×10^3 cells/well. After 24 hours of culture,” for “at 2×10^4 cells/well; and”, “FpAT (25” for “FpAT (10 μg/ml PBS, 25 μg/ml PBS, 100”, “with 4” for “with 3”, “group. […] After mixed well, OD value (measured at a wavelength of 570 nm) of each well was measured in a microplate reader, and the cell suppression rates were calculated according to the following formula: cell suppression rate=(mean OD value of blank control group-mean OD value of treated group)/mean OD value of blank control group×100%.” for “group.”

[7] = tested on: human gastric carcinoma BGC-823 cells; assay: Tumor suppression in human gastric carcinoma BGC-823 tumor-bearing nude mice model; type: in vivo, Balb/c nude mice; details: 50 μg/100 μl PBS/injection, angulus oculi medialis vein once every other day, 10 times; vs vehicle, P<0.05
Method: as §1, §2

## H2N-Asp-Ser-Gly-Glu-Gly-Asp-Phe-Leu-Ala-Glu-Gly-Gly-Gly-Val-Arg-COOH (H-DSGEGDFLAEGGGVR-OH; listed as Homo sapiens) [FpAT, fibrinopeptide A truncated, carboxyl terminal 15 amino acids of fibrinopeptide A]
[1]
  growth of vascular endothelial cell of mouse aorta: can suppress specifically the growth
  proliferation, migration and ability to form tubular structure of vascular endothelial cell of mouse aorta: suppress notably
[2]
  tumor suppressing rate: 65.4%
[3]
  growth of human colon cancer HT-29 cells in nude mice (tumor mass): could suppress the growths
[4]
  suppression of PAEC proliferation: came to a same conclusion
[5]
  ability to form a three-dimensional and tubular structure of HUVECs: can suppress specifically
[6]
  suppressing rate of HUVEC proliferation: 40.1%
[7]
  growth of human gastric carcinoma BGC-823 cells in nude mice (tumor mass): could suppress the growths

Source: patent US8377883B2, “Peptide for anti-angiogenesis and use thereof” (Beijing Institute for Cancer Research, priority 2006, dated 2013)
